Assay results published in ChEMBL document CHEMBL4651402, “Screening of ~5500 FDA-approved drugs and clinical candidates for anti-SARS-CoV-2 activity” (2021).

Tested on: SARS-CoV-2
Experiment: microbe, parasite or virus in culture
Settings: Severe acute respiratory syndrome coronavirus 2, Vero C1008, 48 h

Compound | IC50 [µM] | IC50 (read-out: pIC50 (converted)) [µM]
CCN1C[C@]2(COC)CC[C@H](OC)[C@]34[C@@H]5C[C@H]6[C@H](OC)[C@@H]5[C@@]5(C[C@@H]6OC)OCO[C@@]5([C@H]13)[C@@H](O)[C@H]24 | > 20 | > 20
O=C1NC(=O)[C@H](c2cn3c4c(cccc24)CCC3)[C@H]1c1c[nH]c2ccccc12 | > 20 | > 20
COc1cc2c(cc1O)CC1c3c(cc(O)c(OC)c3-2)CCN1C (configuration not stated) | > 20 | > 20
CN1CCN(c2ccc(OC(F)(F)F)c(Nc3ncc4c(n3)-c3c(c(C(N)=O)nn3CCO)CC4)c2)CC1 [ONVANSERTIB] | > 20 | > 20
CC[C@@H]1C[C@]1(NC(=O)[C@@H]1C[C@@H]2CN1C(=O)[C@H](C(C)(C)C)NC(=O)OCC(C)(C)CCCCc1cccc3c1CN(C3)C(=O)O2)C(=O)NS(=O)(=O)C1CC1 | > 20 | > 20
COc1cnc(-n2cnc(C)n2)c2c1c(C(=O)C(=O)N1CCN(C(=O)c3ccccc3)CC1)cn2COP(=O)(O)O [FOSTEMSAVIR] | > 20 | > 20
C=CC1=C(C(=O)O)N2C(=O)[C@@H](NC(=O)/C(=N\OCC(=O)O)c3csc(N)n3)[C@H]2SC1 [CEFIXIME] | > 20 | > 20
CC(=O)O[C@]1(C(C)=O)CCC2C3C[C@H](C)C4=CC(=O)CCC4(C)C3CCC21C (some centres not stated) | > 20 | > 20
CN(C)CCO[C@@H](c1ccc(Cl)cc1)c1ccccn1 [ROTOXAMINE] | > 20 | > 20
CC1O[C@@H](OC2CC[C@@]3(C)C(CCC4C3CC(O)[C@]3(C)[C@@H](C5=CC(=O)OC5)CCC43O)C2)CC(O)[C@@H]1O[C@H]1CC(O)[C@H](O[C@H]2CC(O)[C@H](O[C@@H]3OC(CO)[C@@H](O)C(O)C3O)C(C)O2)C(C)O1 (some centres not stated) | > 20 | > 20
COc1cc2c(cc1OC)[C@@H]1C(=O)c3ccc4c(c3O[C@@H]1CO2)C=CC(C)(C)O4 [DEGUELIN] | > 20 | > 20
C[C@H]1c2nnn(-c3ncc(F)cn3)c2CCN1C(=O)c1cccc(C(F)(F)F)c1Cl | > 20 | > 20
N#Cc1nn(-c2c(Cl)cc(C(F)(F)F)cc2Cl)c(N)c1[S+]([O-])C(F)(F)F (configuration not stated) [FIPRONIL] | > 20 | > 20
CC(C)NCC(O)COc1ccc(CC(N)=O)cc1 (racemic) [ATENOLOL] | > 20 | > 20
C=CCC(N)Cc1ccccc1 (configuration not stated) [ALETAMINE] | > 20 | > 20
C[N+]1(C)C2CCC1CC(OC(=O)C(O)c1ccccc1)C2 (configuration not stated) | > 20 | > 20
CCCCCCCCCC(=O)OC1(c2ccc(Cl)cc2)CCN(CCCC(=O)c2ccc(F)cc2)CC1 [HALOPERIDOL DECANOATE] | > 20 | > 20
CCCCOc1ccc(OCCCN2CCOCC2)cc1 [PRAMOXINE] | > 20 | > 20
O=C(COCCOCCOCC(=O)Nc1c(I)cc(I)c(C(=O)O)c1I)Nc1c(I)cc(I)c(C(=O)O)c1I [IOTROXIC ACID] | > 20 | > 20
O=C(c1ccc(OCCN2CCCCC2)cc1)c1c(-c2ccc(O)cc2)sc2cc(O)ccc12 [RALOXIFENE] | > 20 | > 20
CN1CCc2cc(Cl)c(O)cc2[C@@H](c2ccccc2)C1 [SCH-23390] | > 20 | > 20
CCOC(=O)N(Cc1ccccc1)C1CC1 [ENCYPRATE] | > 20 | > 20
CCCCCCCCCCCC1=C(O)C(=O)C=C(O)C1=O [EMBELIN] | > 20 | > 20
CC(=O)O[C@]1(C(C)=O)CC[C@H]2[C@@H]3C=C(C)C4=CC(=O)CC[C@]4(C)[C@H]3CC[C@@]21C [MEGESTROL ACETATE] | > 20 | > 20
Nc1nc(OCc2ccccc2)c2nc[nH]c2n1 [6-O-BENZYLGUANINE] | > 20 | > 20
OC(CNc1ccccn1)c1ccccc1 (configuration not stated) [PHENYRAMIDOL] | > 20 | > 20

Compound | IC50 [µM] | IC50 (read-out: pIC50 (converted)) [µM]
NC(=S)N/N=C/c1ccncc1 | > 20 | > 20
CN(C)CCc1c[nH]c2ccccc12 | > 20 | > 20
c1ccc2c(c1)Sc1ccccc1N2CCN1CCCC1 [PYRATHIAZINE] | > 20 | > 20
CCc1ccccc1-n1c(C)nc2ccccc2c1=O [ETAQUALONE] | > 25.1 | > 25.1
CCCOC(=O)c1ccc(O)cc1 [PROPYLPARABEN] | > 20 | > 20
NS(=O)(=O)c1cc(Cl)c(Cl)c(S(N)(=O)=O)c1 [DICHLORPHENAMIDE] | > 20 | > 20
N=C(N)NC(=N)Nc1ccccc1 [PHENYL BIGUANIDE] | > 20 | > 20
CN1c2ccccc2[C@H](NCCCCCCC(=O)O)c2ccc(Cl)cc2S1(=O)=O | > 20 | > 20
CC(=O)OCC(=O)[C@@]12OC3(CCCC3)O[C@@H]1C[C@H]1[C@@H]3CCC4=CC(=O)C=C[C@]4(C)[C@@]3(F)[C@@H](O)C[C@@]12C [AMCINONIDE] | > 20 | > 20
C[C@H](C#Cc1ccc(Cc2ccc(F)cc2)s1)N(O)C(N)=O [ATRELEUTON] | > 20 | > 20
ClC1C(Cl)C(Cl)C(Cl)C(Cl)C1Cl (configuration not stated) | > 20 | > 20
CC(S)C(=O)NCC(=O)O (configuration not stated) [TIOPRONIN] | > 20 | > 20
CC1(C)Oc2ccc(C#N)cc2[C@@H](N2CCCC2=O)[C@@H]1O [LEVCROMAKALIM] | > 20 | > 20
C=CCNc1nc(NCC=C)nc(N2CCN(C(c3ccc(F)cc3)c3ccc(F)cc3)CC2)n1 [ALMITRINE] | > 20 | > 20
O=C(O)[C@]1(O)C[C@H](O)[C@@H](O)[C@@H](O)C1 | > 20 | > 20
O=C(c1ccc(Nc2ccnc3cc(C(F)(F)F)ccc23)cc1)N1CCN(S(=O)(=O)c2ccc(F)cc2)CC1 [LOSULAZINE] | > 20 | > 20
COP(=O)(OC)C(O)C(Cl)(Cl)Cl (configuration not stated) [TRICHLORFON] | > 20 | > 20
CCOC(=O)C(CC)(C(=O)NCCN(CC)CC)c1ccccc1 (configuration not stated) [FENALAMIDE] | > 20 | > 20
Cc1onc(-c2ccccc2)c1-c1ccc(S(N)(=O)=O)cc1 [VALDECOXIB] | > 20 | > 20
CC(=O)[C@H]1CC[C@H]2[C@@H]3CCC4=CC(=O)CC[C@]4(C)[C@H]3CC[C@]12C [PROGESTERONE] | > 20 | > 20
O=c1c(O)c(-c2ccc(O)cc2)oc2cc(O)cc(O)c12 [KAEMPFEROL] | > 20 | > 20
COc1c2ccoc2cc2oc(C)cc(=O)c12 [VISNAGIN] | > 20 | > 20
CC[C@]1(O)C[C@@H]2CN(CCc3c([nH]c4ccccc34)[C@@](C(=O)OC)(c3cc4c(cc3OC)N(C)[C@H]3[C@@](O)(C(N)=O)[C@H](O)[C@]5(CC)C=CCN6CC[C@]43[C@@H]65)C2)C1 [VINDESINE] | > 20 | > 20
CC1(C)OC2CC3C4CCC5=CC(=O)C=CC5(C)C4C(O)CC3(C)[C@]2(C(=O)CO)O1 (some centres not stated) | > 20 | > 20
COc1ccc(C(=O)c2ccccc2O)c(O)c1 [DIOXYBENZONE] | > 20 | > 20
